According to PubChem BioAssay (NCI):
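Step 1: Grow cells in 96-well plates. Step 2: Expose to compound for 48 hours at 5 concentrations. Step 3: Interpolate endpoints linearly; if unreached, use highest concentration. TGI denotes the concentration required for complete inhibition of growth.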

Assays:
Assay in all cases: NCI anticancer screen, dose series, 48 h
786-0 renal = system: 786-0 renal
A549 NSCLC = system: A549 NSCLC
ACHN renal = system: ACHN renal
BT-549 breast = system: BT-549 breast
CAKI-1 renal = system: CAKI-1 renal
CCRF-CEM leukemia = system: CCRF-CEM leukemia
COLO 205 colon = system: COLO 205 colon
DU-145 prostate = system: DU-145 prostate
EKVX NSCLC = system: EKVX NSCLC
HCC-2998 colon = system: HCC-2998 colon
HCT-116 colon = system: HCT-116 colon
HCT-15 colon = system: HCT-15 colon
HL-60(TB) leukemia = system: HL-60(TB) leukemia
HOP-62 NSCLC = system: HOP-62 NSCLC
HOP-92 NSCLC = system: HOP-92 NSCLC
HS 578T breast = system: HS 578T breast
HT29 colon = system: HT29 colon
IGROV1 ovarian = system: IGROV1 ovarian
KM12 colon = system: KM12 colon
LOX IMVI melanoma = system: LOX IMVI melanoma
M14 melanoma = system: M14 melanoma
MALME-3M melanoma = system: MALME-3M melanoma
MCF7 breast = system: MCF7 breast
MDA-MB-231 breast = system: MDA-MB-231 breast
MDA-MB-435 = system: MDA-MB-435
MDA-N = system: MDA-N
MOLT-4 leukemia = system: MOLT-4 leukemia
NCI-H226 lung = system: NCI-H226 lung
NCI-H23 lung = system: NCI-H23 lung
NCI-H522 lung = system: NCI-H522 lung
NCI/ADR-RES ovarian = system: NCI/ADR-RES ovarian
OVCAR-3 ovarian = system: OVCAR-3 ovarian
OVCAR-4 ovarian = system: OVCAR-4 ovarian
OVCAR-5 ovarian = system: OVCAR-5 ovarian
OVCAR-8 ovarian = system: OVCAR-8 ovarian
PC-3 prostate = system: PC-3 prostate
RPMI-8226 leukemia = system: RPMI-8226 leukemia
RXF 393 renal = system: RXF 393 renal
SF-268 CNS = system: SF-268 CNS
SF-295 CNS = system: SF-295 CNS
SF-539 CNS = system: SF-539 CNS
SK-MEL-2 melanoma = system: SK-MEL-2 melanoma
SK-MEL-28 melanoma = system: SK-MEL-28 melanoma
SK-MEL-5 melanoma = system: SK-MEL-5 melanoma
SK-OV-3 ovarian = system: SK-OV-3 ovarian
SN12C renal = system: SN12C renal
SNB-19 CNS = system: SNB-19 CNS
SNB-75 CNS = system: SNB-75 CNS
SR leukemia = system: SR leukemia
SW-620 colon = system: SW-620 colon
T-47D breast = system: T-47D breast
TK-10 renal = system: TK-10 renal
U251 CNS = system: U251 CNS
UACC-257 melanoma = system: UACC-257 melanoma
UACC-62 melanoma = system: UACC-62 melanoma
UO-31 renal = system: UO-31 renal
A498 renal = system: A498 renal
K-562 leukemia = system: K-562 leukemia
NCI-H460 lung = system: NCI-H460 lung

Compound: O=C1NC(N2CCCC(CO)C2)=N/C1=C\c1ccccc1 (centres undefined)
- TGI (786-0 renal): > 100 µM
- TGI (A549 NSCLC): > 100 µM
- TGI (ACHN renal): > 100 µM
- TGI (BT-549 breast): > 100 µM
- TGI (CAKI-1 renal): > 100 µM
- TGI (CCRF-CEM leukemia): > 100 µM
- TGI (COLO 205 colon): > 100 µM
- TGI (DU-145 prostate): > 100 µM
- TGI (EKVX NSCLC): > 100 µM
- TGI (HCC-2998 colon): > 100 µM
- TGI (HCT-116 colon): > 100 µM
- TGI (HCT-15 colon): > 100 µM
- TGI (HL-60(TB) leukemia): > 100 µM
- TGI (HOP-62 NSCLC): > 100 µM
- TGI (HOP-92 NSCLC): > 100 µM
- TGI (HS 578T breast): > 100 µM
- TGI (HT29 colon): > 100 µM
- TGI (IGROV1 ovarian): > 100 µM
- TGI (KM12 colon): > 100 µM
- TGI (LOX IMVI melanoma): > 100 µM
- TGI (M14 melanoma): > 100 µM
- TGI (MALME-3M melanoma): > 100 µM
- TGI (MCF7 breast): > 100 µM
- TGI (MDA-MB-231 breast): > 100 µM
- TGI (MDA-MB-435): > 100 µM
- TGI (MDA-N): > 100 µM
- TGI (MOLT-4 leukemia): > 100 µM
- TGI (NCI-H226 lung): > 100 µM
- TGI (NCI-H23 lung): > 100 µM
- TGI (NCI-H522 lung): > 100 µM
- TGI (NCI/ADR-RES ovarian): > 100 µM
- TGI (OVCAR-3 ovarian): > 100 µM
- TGI (OVCAR-4 ovarian): > 100 µM
- TGI (OVCAR-5 ovarian): > 100 µM
- TGI (OVCAR-8 ovarian): > 100 µM
- TGI (PC-3 prostate): > 100 µM
- TGI (RPMI-8226 leukemia): > 100 µM
- TGI (RXF 393 renal): > 100 µM
- TGI (SF-268 CNS): > 100 µM
- TGI (SF-295 CNS): > 100 µM
- TGI (SF-539 CNS): > 100 µM
- TGI (SK-MEL-2 melanoma): > 100 µM
- TGI (SK-MEL-28 melanoma): > 100 µM
- TGI (SK-MEL-5 melanoma): > 100 µM
- TGI (SK-OV-3 ovarian): > 100 µM
- TGI (SN12C renal): > 100 µM
- TGI (SNB-19 CNS): > 100 µM
- TGI (SNB-75 CNS): > 100 µM
- TGI (SR leukemia): > 100 µM
- TGI (SW-620 colon): > 100 µM
- TGI (T-47D breast): > 100 µM
- TGI (TK-10 renal): > 100 µM
- TGI (U251 CNS): > 100 µM
- TGI (UACC-257 melanoma): > 100 µM
- TGI (UACC-62 melanoma): > 100 µM
- TGI (UO-31 renal): > 100 µM

Compound: O=C1CCC(=O)N1CNc1ccc2c(c1)S(=O)(=O)c1ccccc1O2
- TGI (786-0 renal): > 100 µM
- TGI (A498 renal): > 100 µM
- TGI (A549 NSCLC): > 100 µM
- TGI (ACHN renal): > 100 µM
- TGI (BT-549 breast): > 100 µM
- TGI (CAKI-1 renal): > 100 µM
- TGI (CCRF-CEM leukemia): > 100 µM
- TGI (COLO 205 colon): > 100 µM
- TGI (DU-145 prostate): > 100 µM
- TGI (EKVX NSCLC): > 100 µM
- TGI (HCT-116 colon): > 100 µM
- TGI (HCT-15 colon): > 100 µM
- TGI (HL-60(TB) leukemia): > 100 µM
- TGI (HOP-62 NSCLC): > 100 µM
- TGI (HOP-92 NSCLC): > 100 µM
- TGI (HS 578T breast): > 100 µM
- TGI (HT29 colon): > 100 µM
- TGI (IGROV1 ovarian): > 100 µM
- TGI (K-562 leukemia): > 100 µM
- TGI (KM12 colon): > 100 µM
- TGI (LOX IMVI melanoma): > 100 µM
- TGI (M14 melanoma): > 100 µM
- TGI (MALME-3M melanoma): > 100 µM
- TGI (MCF7 breast): > 100 µM
- TGI (MDA-MB-231 breast): > 100 µM
- TGI (MDA-MB-435): > 100 µM
- TGI (MDA-N): > 100 µM
- TGI (MOLT-4 leukemia): > 100 µM
- TGI (NCI-H226 lung): > 100 µM
- TGI (NCI-H23 lung): > 100 µM
- TGI (NCI-H522 lung): > 100 µM
- TGI (NCI/ADR-RES ovarian): > 100 µM
- TGI (OVCAR-3 ovarian): > 100 µM
- TGI (OVCAR-4 ovarian): > 100 µM
- TGI (OVCAR-5 ovarian): > 100 µM
- TGI (OVCAR-8 ovarian): > 100 µM
- TGI (PC-3 prostate): > 100 µM
- TGI (RPMI-8226 leukemia): > 100 µM
- TGI (RXF 393 renal): > 100 µM
- TGI (SF-268 CNS): > 100 µM
- TGI (SF-295 CNS): > 100 µM
- TGI (SF-539 CNS): > 100 µM
- TGI (SK-MEL-2 melanoma): > 100 µM
- TGI (SK-MEL-28 melanoma): > 100 µM
- TGI (SK-MEL-5 melanoma): > 100 µM
- TGI (SN12C renal): > 100 µM
- TGI (SNB-19 CNS): > 100 µM
- TGI (SW-620 colon): > 100 µM
- TGI (T-47D breast): > 100 µM
- TGI (TK-10 renal): > 100 µM
- TGI (U251 CNS): > 100 µM
- TGI (UACC-257 melanoma): > 100 µM
- TGI (UACC-62 melanoma): > 100 µM
- TGI (UO-31 renal): > 100 µM

Compound: Cc1cc(C)c2c(n1)S(=O)(=O)N(CCCN1CCN(c3cccc(Cl)c3)CC1)/C(=C(\O)c1ccccc1)C2=O
- TGI (786-0 renal): > 100 µM
- TGI (A498 renal): > 100 µM
- TGI (A549 NSCLC): > 100 µM
- TGI (ACHN renal): > 100 µM
- TGI (BT-549 breast): > 100 µM
- TGI (CAKI-1 renal): 62.2 µM
- TGI (CCRF-CEM leukemia): > 100 µM
- TGI (COLO 205 colon): 36.9 µM
- TGI (DU-145 prostate): > 100 µM
- TGI (EKVX NSCLC): 82.7 µM
- TGI (HCT-116 colon): 92.5 µM
- TGI (HCT-15 colon): > 100 µM
- TGI (HL-60(TB) leukemia): 71 µM
- TGI (HOP-62 NSCLC): > 100 µM
- TGI (HOP-92 NSCLC): 77.4 µM
- TGI (HS 578T breast): > 100 µM
- TGI (HT29 colon): > 100 µM
- TGI (IGROV1 ovarian): > 100 µM
- TGI (K-562 leukemia): > 100 µM
- TGI (KM12 colon): > 100 µM
- TGI (LOX IMVI melanoma): > 100 µM
- TGI (M14 melanoma): > 100 µM
- TGI (MALME-3M melanoma): > 100 µM
- TGI (MCF7 breast): > 100 µM
- TGI (MDA-MB-231 breast): > 100 µM
- TGI (MDA-MB-435): > 100 µM
- TGI (MDA-N): > 100 µM
- TGI (MOLT-4 leukemia): 44.4 µM
- TGI (NCI-H23 lung): 89.1 µM
- TGI (NCI-H460 lung): 52.5 µM
- TGI (NCI-H522 lung): > 100 µM
- TGI (NCI/ADR-RES ovarian): > 100 µM
- TGI (OVCAR-3 ovarian): > 100 µM
- TGI (OVCAR-4 ovarian): 88.8 µM
- TGI (OVCAR-5 ovarian): > 100 µM
- TGI (OVCAR-8 ovarian): > 100 µM
- TGI (PC-3 prostate): > 100 µM
- TGI (SF-268 CNS): > 100 µM
- TGI (SF-295 CNS): 95.9 µM
- TGI (SF-539 CNS): > 100 µM
- TGI (SK-MEL-2 melanoma): > 100 µM
- TGI (SK-MEL-28 melanoma): > 100 µM
- TGI (SK-MEL-5 melanoma): 60.2 µM
- TGI (SK-OV-3 ovarian): > 100 µM
- TGI (SN12C renal): 93.4 µM
- TGI (SNB-19 CNS): > 100 µM
- TGI (SR leukemia): 68.9 µM
- TGI (SW-620 colon): > 100 µM
- TGI (T-47D breast): > 100 µM
- TGI (TK-10 renal): 78.5 µM
- TGI (U251 CNS): > 100 µM
- TGI (UACC-257 melanoma): 55.4 µM
- TGI (UACC-62 melanoma): > 100 µM
- TGI (UO-31 renal): 74 µM
